The values that follow come from patent US20230024302A1, “2,3,5-TRISUBSTITUTED PYRAZOLO[1,5-A]PYRIMIDINE COMPOUNDS” (Arcus Biosciences, Inc., priority 2019, published 2023).

In one assay the target is T1, PI3Kγ (p120γ) (Homo sapiens, UniProt P48736).
T1 construct: purchased Promega V1761
Nature of the assay: Inhibition of PI3K kinase activity (ADP Glo), PI3Kγ. The following applies: Table 1, p120γ, read-out: biochemical potency (PI3Kγ IC50). Here is the method:
Compounds were evaluated to determine the potency with which they inhibited the kinase activity of the Class I PI3K subunits p110α/p85α (Promega, Cat #V1721), p110β/p85α (Promega, Cat #V1751), p120γ (Promega, Cat #V1761) and p110δ/p85α (Promega, Cat #V1771). Activity was determined as a function of ADP (adenosine diphosphate) generated from ATP consumed during the phosphorylation of Phosphatidylinositol 4,5-bisphosphate (PIP2) (Promega, Cat #V1701) to yield Phosphatidylinositol (3,4,5)-trisphosphate (PIP3). ADP levels in the assay mixture at the end of the reaction were quantitated using ADP Glo (Promega, Cat #V9103) according to the manufacturer's recommended protocol.
Enzyme was prepared for each of the PI3K subunits in 100 mM HEPES, pH 7.4, 100 mM NaCl, 6 mM MgCl2 and 0.05% BSA. p110α/p85α was prepared at 2 nM (2×), p110β/p85α was prepared at 7 nM (2×), p120γ was prepared at 8 nM (2×) and p110δ/p85α was prepared at 2 nM (2×). Five microliters of 2× enzyme dilution of each PI3K subunit were added to a 384-well white Opti-plates pre-dispensed with compound and allowed to incubate for 1 h at rt. A substrate mix containing 0.1 mg/ml (2×) of PIP2 and 50 μM (2×) ATP (Promega, Cat #V915) was prepared in 25 mM HEPES and 0.5 mM EGTA. Reactions were initiated by addition of 5 μl of 2× substrate mix to each well of the plates containing various PI3K isoforms and allowed to proceed for 60 min at rt. Ten microliters of ADP Glo reagent 1 were added to the wells of each plate and allowed to incubate at rt for 45 min according to the manufacturer's directions. Following incubation, 20 μl of ADP Glo reagent 2 was added to each plate and allowed to incubate for an additional 45 min. Luminescent signal, generated by ADP Glo, was quantified by reading on a Perkin Elmer Envision multimode reader. Compound potencies (IC50's) were determined using a standard 4-parameter fit non-linear regression fit.

For another assay, the target named is T2, PI3Kγ (Homo sapiens, UniProt P48736).
T2 construct: host or cells: THP-1
T2 sequence (P48736 whole entry): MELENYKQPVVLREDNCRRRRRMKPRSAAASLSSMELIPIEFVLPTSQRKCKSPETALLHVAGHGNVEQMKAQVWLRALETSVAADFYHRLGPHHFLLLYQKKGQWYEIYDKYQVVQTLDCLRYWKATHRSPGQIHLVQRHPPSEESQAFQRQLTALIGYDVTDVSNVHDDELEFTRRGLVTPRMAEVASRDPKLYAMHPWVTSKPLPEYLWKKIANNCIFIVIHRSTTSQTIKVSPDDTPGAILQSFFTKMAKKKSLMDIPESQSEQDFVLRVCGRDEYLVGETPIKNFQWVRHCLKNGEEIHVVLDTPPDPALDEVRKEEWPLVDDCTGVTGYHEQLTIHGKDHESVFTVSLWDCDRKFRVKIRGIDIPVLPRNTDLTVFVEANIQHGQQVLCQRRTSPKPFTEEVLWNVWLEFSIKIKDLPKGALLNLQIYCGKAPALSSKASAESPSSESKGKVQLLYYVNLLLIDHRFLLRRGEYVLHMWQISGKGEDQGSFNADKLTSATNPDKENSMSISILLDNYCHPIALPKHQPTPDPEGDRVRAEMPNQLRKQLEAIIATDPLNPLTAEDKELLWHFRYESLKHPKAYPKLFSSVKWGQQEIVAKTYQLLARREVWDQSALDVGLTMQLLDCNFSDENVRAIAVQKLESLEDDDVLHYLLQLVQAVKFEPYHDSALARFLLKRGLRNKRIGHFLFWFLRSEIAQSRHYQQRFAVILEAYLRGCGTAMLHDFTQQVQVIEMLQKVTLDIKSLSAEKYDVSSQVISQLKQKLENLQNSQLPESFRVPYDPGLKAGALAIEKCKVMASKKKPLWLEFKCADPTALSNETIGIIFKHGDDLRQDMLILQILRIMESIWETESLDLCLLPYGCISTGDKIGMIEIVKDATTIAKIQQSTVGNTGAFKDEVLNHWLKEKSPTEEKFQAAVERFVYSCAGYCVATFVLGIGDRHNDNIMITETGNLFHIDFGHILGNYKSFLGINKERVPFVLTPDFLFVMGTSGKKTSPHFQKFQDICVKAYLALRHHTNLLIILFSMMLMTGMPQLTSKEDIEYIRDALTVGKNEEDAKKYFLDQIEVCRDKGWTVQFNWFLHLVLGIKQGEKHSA
Nature of the assay: PI3Kγ cellular assay in THP-1 cells (AKT pS473 AlphaLISA). The following applies: Table 1, rhMCP-1 stimulated AKT pS473, read-out: cellular potency (PI3Kγ IC50). Format: cell-based. Here is the method:
Twenty microliters of serum starved THP-1 cells were added to the compound plate in serum free DMEM at a density of 9×10^6 cells per ml. Final assay conditions comprised 1.8×10^5 THP-1 cells per well with test compounds in 2% DMSO across a concentration range from 4 nM to 30 μM. […] Briefly, 10 μL of 4× lysis buffer was added to cells after stimulation. Following 60 min incubation at rt, 10 μL of cell lysate was transferred to a fresh 384-well Opti-plate to which 5 μL of AlphaLisa acceptor beads and 5 μL of AlphaLisa donor beads had been added. […] PI3Kγ activity was evaluated as a correlate of endogenous AKT phosphorylation levels. Percentage maximum activity in each test well was calculated based on DMSO (100% activity) and positive control treated cell wells (0% activity). The potencies (IC50's) of test compounds were determined using a standard 4-parameter fit non-linear regression fit.
A general note: In Alpha technology, singlet oxygen from a donor bead excites a nearby acceptor bead.

The term IC50 denotes the concentration at which inhibition is half-maximal.

Where only a bound is given, the exact number is not on record here.

T1 sequence (P48736 whole entry): as above

Consider `C[C@@H](C1CC1)N1Cc2cc(-c3ccn4nc(N)c(C(=O)NC5CC5)c4n3)cc(OC(F)(F)F)c2C1=O` [Example 20, 2-Amino-N-cyclopropyl-5-{2-[(1S)-1-cyclopropylethyl]-1-oxo-7-(trifluoromethoxy)-2,3-dihydro-1H-isoindol-5-yl}pyrazolo[1,5-a]pyrimidine-3-carboxamide], for which the concentration for half-maximal inhibition (IC50) on PI3Kγ (p120γ) and at PI3Kγ was under 100 nM in each case.
For the compound `C[C@@H](C1CC1)N1Cc2cc(-c3ccn4nc(N)c(C(=O)NC5COC5)c4n3)cc(OC(F)(F)F)c2C1=O` [Example 21, 2-Amino-5-{2-[(1S)-1-cyclopropylethyl]-1-oxo-7-(trifluoromethoxy)-2,3-dihydro-1H-isoindol-5-yl}-N-(oxetan-3-yl)pyrazolo[1,5-a]pyrimidine-3-carboxamide], the IC50 at PI3Kγ (p120γ) and at PI3Kγ was under 100 nM throughout.
On to `C[C@H](CO)NC(=O)c1c(N)nn2ccc(-c3cc4c(c(OC(F)(F)F)c3)C(=O)N([C@@H](C)C3CC3)C4)nc12` [Example 22, 2-Amino-5-{2-[(1S)-1-cyclopropylethyl]-1-oxo-7-(trifluoromethoxy)-2,3-dihydro-1H-isoindol-5-yl}-N-[(2R)-1-hydroxypropan-2-yl]pyrazolo[1,5-a]pyrimidine-3-carboxamide], for which the IC50 at PI3Kγ (p120γ) and on PI3Kγ was under 100 nM in each case.
On to `C[C@@H](C1CC1)N1Cc2cc(-c3ccn4nc(N)c(C(=O)N[C@H]5C[C@@](C)(O)C5)c4n3)cc(OC(F)(F)F)c2C1=O` [Example 23, 2-Amino-5-{2-[(1S)-1-cyclopropylethyl]-1-oxo-7-(trifluoromethoxy)-2,3-dihydro-1H-isoindol-5-yl}-N-[cis-3-hydroxy-3-methylcyclobutyl]pyrazolo[1,5-a]pyrimidine-3-carboxamide], for which the half-inhibitory concentration (IC50) at PI3Kγ (p120γ) and at PI3Kγ was under 100 nM throughout.
For the compound `C[C@@H](C1CC1)N1Cc2cc(-c3ccn4nc(N)c(C(=O)N[C@H]5CC[C@@](C)(O)CC5)c4n3)cc(OC(F)(F)F)c2C1=O` [Example 24, 2-Amino-5-{2-[(1S)-1-cyclopropylethyl]-1-oxo-7-(trifluoromethoxy)-2,3-dihydro-1H-isoindol-5-yl}-N-[cis-4-hydroxy-4-methylcyclohexyl]pyrazolo[1,5-a]pyrimidine-3-carboxamide], the half-inhibitory concentration (IC50) at PI3Kγ (p120γ) and on PI3Kγ was under 100 nM throughout.
As for `CC(C)[C@H](CO)NC(=O)c1c(N)nn2ccc(-c3cc4c(c(OC(F)(F)F)c3)C(=O)N([C@@H](C)C3CC3)C4)nc12` [Example 25, 2-Amino-5-{2-[(1S)-1-cyclopropylethyl]-1-oxo-7-(trifluoromethoxy)-2,3-dihydro-1H-isoindol-5-yl}-N-[(2R)-1-hydroxy-3-methylbutan-2-yl]pyrazolo[1,5-a]pyrimidine-3-carboxamide], the IC50 on PI3Kγ (p120γ) and on PI3Kγ was under 100 nM in each case.
With `C[C@@H](C1CC1)N1Cc2cc(-c3ccn4nc(N)c(C(=O)N[C@@H](CO)C5CC5)c4n3)cc(OC(F)(F)F)c2C1=O` [Example 26, 2-Amino-N-[(1R)-1-cyclopropyl-2-hydroxyethyl]-5-{2-[(1S)-1-cyclopropylethyl]-1-oxo-7-(trifluoromethoxy)-2,3-dihydro-1H-isoindol-5-yl}pyrazolo[1,5-a]pyrimidine-3-carboxamide], the IC50 on PI3Kγ (p120γ) and at PI3Kγ was under 100 nM in each case.
For the compound `C[C@H](CO)NC(=O)c1c(N)nn2ccc(-c3cc4c(c(OC(F)(F)F)c3)C(=O)N([C@@H](C)C(F)(F)F)C4)nc12` [Example 27, 2-Amino-N-[(2R)-1-hydroxypropan-2-yl]-5-[1-oxo-7-(trifluoromethoxy)-2-[(2S)-1,1,1-trifluoropropan-2-yl]-2,3-dihydro-1H-isoindol-5-yl]pyrazolo[1,5-a]pyrimidine-3-carboxamide], the 50% inhibitory concentration (IC50) on PI3Kγ (p120γ) and at PI3Kγ was under 100 nM each time.
For the compound `C[C@@H](C1CC1)N1Cc2cc(-c3ccn4nc(N)c(C(=O)N[C@H]5CNC(=O)C5)c4n3)cc(OC(F)(F)F)c2C1=O` [Example 28, 2-Amino-5-{2-[(1S)-1-cyclopropylethyl]-1-oxo-7-(trifluoromethoxy)-2,3-dihydro-1H-isoindol-5-yl}-N-[(3R)-5-oxopyrrolidin-3-yl]pyrazolo[1,5-a]pyrimidine-3-carboxamide], the half-inhibitory concentration (IC50) on PI3Kγ (p120γ) and at PI3Kγ was under 100 nM throughout.
On to `C[C@@H](C1CC1)N1Cc2cc(-c3ccn4nc(N)c(C(=O)N[C@H]5CCC[C@@H](O)C5)c4n3)cc(OC(F)(F)F)c2C1=O` [Example 29, 2-Amino-5-{2-[(1S)-1-cyclopropylethyl]-1-oxo-7-(trifluoromethoxy)-2,3-dihydro-1H-isoindol-5-yl}-N-[(1S,3R)-3-hydroxycyclohexyl]pyrazolo[1,5-a]pyrimidine-3-carboxamide], for which the IC50 at PI3Kγ (p120γ) and on PI3Kγ was under 100 nM in each case.
Regarding `C[C@@H](C1CC1)N1Cc2cc(-c3ccn4nc(N)c(C(=O)N[C@H]5CC[C@H](C6(O)CC6)CC5)c4n3)cc(OC(F)(F)F)c2C1=O` [Example 30, 2-Amino-5-(2-((S)-1-cyclopropylethyl)-1-oxo-7-(trifluoromethoxy)isoindolin-5-yl)-N-(trans-4-(1-hydroxycyclopropyl)cyclohexyl)pyrazolo[1,5-a]pyrimidine-3-carboxamide], the half-inhibitory concentration (IC50) at PI3Kγ (p120γ) and on PI3Kγ was under 100 nM in each case.
For `C[C@@H](C1CC1)N1Cc2cc(-c3ccn4nc(N)c(C(=O)N[C@H]5CC[C@H](N)CC5)c4n3)cc(OC(F)(F)F)c2C1=O` [Example 31, 2-Amino-5-{2-[(1S)-1-cyclopropylethyl]-1-oxo-7-(trifluoromethoxy)-2,3-dihydro-1H-isoindol-5-yl}-N-[trans-4-aminocyclohexyl]pyrazolo[1,5-a]pyrimidine-3-carboxamide], the IC50 at PI3Kγ (p120γ) and at PI3Kγ was under 100 nM throughout.
Turning to `C[C@@H](C1CC1)N1Cc2cc(-c3ccn4nc(N)c(C(=O)N[C@H]5CCNC5=O)c4n3)cc(OC(F)(F)F)c2C1=O` [Example 32, 2-Amino-5-{2-[(1S)-1-cyclopropylethyl]-1-oxo-7-(trifluoromethoxy)-2,3-dihydro-1H-isoindol-5-yl}-N-[(3S)-2-oxopyrrolidin-3-yl]pyrazolo[1,5-a]pyrimidine-3-carboxamide], the IC50 on PI3Kγ (p120γ) and on PI3Kγ was under 100 nM in each case.
Regarding `C[C@@H](C1CC1)N1Cc2cc(-c3ccn4nc(N)c(C(=O)N[C@@H]5CCC[C@H](N)C5)c4n3)cc(OC(F)(F)F)c2C1=O` [Example 33, 2-Amino-N-[(1R,3S)-3-aminocyclohexyl]-5-{2-[(1S)-1-cyclopropylethyl]-1-oxo-7-(trifluoromethoxy)-2,3-dihydro-1H-isoindol-5-yl}pyrazolo[1,5-a]pyrimidine-3-carboxamide], the IC50 at PI3Kγ (p120γ) and on PI3Kγ was under 100 nM each time.
Take `C[C@@H](C1CC1)N1Cc2cc(-c3ccn4nc(N)c(C(=O)N[C@@H]5CCC[C@H](N(C)C)C5)c4n3)cc(OC(F)(F)F)c2C1=O` [Example 34, 2-Amino-5-{2-[(1S)-1-cyclopropylethyl]-1-oxo-7-(trifluoromethoxy)-2,3-dihydro-1H-isoindol-5-yl}-N-[(1R,3S)-3-(dimethylamino)cyclohexyl]pyrazolo[1,5-a]pyrimidine-3-carboxamide]: the half-maximal inhibitory concentration (IC50) on PI3Kγ (p120γ) and at PI3Kγ was under 100 nM throughout.
Turning to `C[C@@H](C1CC1)N1Cc2cc(-c3ccn4nc(N)c(C(=O)N[C@@H]5CCC[C@H]5O)c4n3)cc(OC(F)(F)F)c2C1=O` [Example 35, 2-Amino-5-{2-[(1S)-1-cyclopropylethyl]-1-oxo-7-(trifluoromethoxy)-2,3-dihydro-1H-isoindol-5-yl}-N-[(1R,2R)-2-hydroxycyclopentyl]pyrazolo[1,5-a]pyrimidine-3-carboxamide], the half-maximal inhibitory concentration (IC50) at PI3Kγ (p120γ) and on PI3Kγ was under 100 nM in each case.
